In brackets after ≈: the same amount, converted by molar mass. Where two headings read alike, the source gives them in different places.
Columns and labels:
[1] = Measurement of solubility in tetrahydrofuran; assay type: physicochemical; conditions: for Solubility in tetrahydrofuran compared to Formulae (II-1) and (II-2): comparison in words from Table 1; for solubility: tetrahydrofuran, 24 °C, organic solvent or mixture, thermodynamic from solid, 24±1° C.
Experimental: The solubility of the compound represented by Formula (I-1) in tetrahydrofuran (24±1° C.) is measured in the following manner.
After 10.00 mg of the compound (dark brown solid) represented by Formula (I-1) is mixed with 5.00 ml of tetrahydrofuran in a screw vial, the vial is irradiated with ultrasonic waves for 30 minutes while the vial is sealed with a cap, and left to stand overnight at room temperature. The obtained solution is filtered through a membrane filter having a pore size of 25 nm, and a dry weight of the dark brown solid remaining on the filter is measured. As a result, the weight of the compound represented by Formula (I-1) dissolved in 5.00 ml of tetrahydrofuran is found, whereby the solubility in tetrahydrofuran may be calculated.

[2] = Visible near-infrared absorption spectrum in a tetrahydrofuran solution; assay type: physicochemical
Excerpt: The dark brown solid obtained as above is identified by an infrared absorption spectrum (KBr tablet method), a ^1H-NMR spectrum, a mass spectrum, and a visible near-infrared absorption spectrum. As a result, the dark brown solid described above is confirmed to have a molecular structure represented by Formula (I-1).
Visible Near-Infrared Absorption Spectrum (FIG. 1): […]

[3] = read-out: Solubility in tetrahydrofuran
[4] = read-out: Solubility in tetrahydrofuran, Relative evaluation

Row | SMILES | Solubility in tetrahydrofuran compared to Formulae (II-1) and (II-2) [1] | solubility [1, 3] [µg/mL] | solubility [1, 4] [µg/mL] | Maximum absorption wavelength (λmax) [2] [nm] | Molar absorption coefficient at the maximum absorption wavelength (εmax) [2] [M⁻¹ cm⁻¹]
1 | CC(C)(C)c1ccc(C2=CC(=CC3=C([O-])/C(=C/c4cc(-c5ccc(C(C)(C)C)cc5)[s+]c(-c5ccc(C(C)(C)C)cc5)c4)C3=O)C=C(c3ccc(C(C)(C)C)cc3)S2)cc1 [Formula I-1] | superior solubility in tetrahydrofuran | 1300 | ≥ 1000 | 908 | 269000
2 | CCCCc1ccc(C2=CC(=CC3=C([O-])/C(=C/c4cc(-c5ccc(CCCC)cc5)[s+]c(-c5ccc(CCCC)cc5)c4)C3=O)C=C(c3ccc(CCCC)cc3)S2)cc1 [Formula I-2] | superior solubility in tetrahydrofuran | 1100 | ≥ 1000 | 910 | 210000
3 | CCc1ccc(C2=CC(=CC3=C([O-])/C(=C/c4cc(-c5ccc(CC)cc5)[s+]c(-c5ccc(CC)cc5)c4)C3=O)C=C(c3ccc(CC)cc3)S2)cc1 [Formula I-3] | superior solubility in tetrahydrofuran | 600 | 100 to 1000 | 908 | 180000

Further lines, results first:

Row | Solubility in tetrahydrofuran compared to Formulae (II-1) and (II-2) [1] | solubility [1, 3] [µg/mL] | solubility [1, 4] [µg/mL] | Maximum absorption wavelength (λmax) [2] [nm] | Molar absorption coefficient at the maximum absorption wavelength (εmax) [2] [M⁻¹ cm⁻¹] | SMILES
4 | – | < 50 | < 100 | 901 | 207000 | O=C1C(C=C2C=C(c3ccccc3)SC(c3ccccc3)=C2)=C([O-])/C1=C/c1cc(-c2ccccc2)[s+]c(-c2ccccc2)c1 [II-1, reference compound]
5 | – | 300 (≈ 455 µM) | 100 to 1000 (≈ 152 to 1520 µM) | 905 | 190000 | Cc1ccc(C2=CC(=CC3=C([O-])/C(=C/c4cc(-c5ccc(C)cc5)[s+]c(-c5ccc(C)cc5)c4)C3=O)C=C(c3ccc(C)cc3)S2)cc1 [II-2, reference compound]
6 | – | 1100 (≈ 1170 µM) | ≥ 1000 | 910 | 200000 | CCCCCCc1ccc(C2=CC(=CC3=C([O-])/C(=C/c4cc(-c5ccc(CCCCCC)cc5)[s+]c(-c5ccc(CCCCCC)cc5)c4)C3=O)C=C(c3ccc(CCCCCC)cc3)S2)cc1 [II-3, reference compound]

Reference: patent publication US8652718B2, “Resin composition, image-forming material, and image-forming method” (Fuji Xerox Co., Ltd., priority 2012, dated 2014)
